Earlier results in patent US5998407A, “Inhibitors of farnesyl-protein transferase” (Merck & Co., Inc., priority 1998, dated 1999).

System: farnesyl-protein transferase
Conditions: via inhibition of HMG-CoA reductase

Compound	Indirect inhibition of farnesyl-protein transferase in vivo
CC[C@H](C)C(=O)O[C@H]1CCC=C2C=C[C@H](C)[C@H](CC[C@@H]3C[C@@H](O)CC(=O)O3)[C@H]21 [compactin]	Indirect inhibition of farnesyl-protein transferase in vivo has been demonstrated
CC[C@H](C)C(=O)O[C@H]1C[C@@H](C)C=C2C=C[C@H](C)[C@H](CC[C@@H]3C[C@@H](O)CC(=O)O3)[C@H]21 [lovastatin]	Indirect inhibition of farnesyl-protein transferase in vivo has been demonstrated
